Measurements from patent US6608082B1, “Treatment of erectile dysfunction using isoquinoline compound melanocortin receptor ligands” (Lion Bioscience AG, priority 1998, dated 2003).
Where two headings read alike, the source gives them in different places. Each block holds one compound with its values, some of them ahead of it.

Legend:
[1] = molecular target: T1, MCR-1 (Homo sapiens, UniProt Q01726); assay: Melanocortin receptor binding assay, competition with 125I-HP 467, HEK 293 cells expressing hMCR-1; conditions: for IC50: read-out: MC-1 IC50; for % Disp. MC-1 10 μM: displacement of 125I-HP 467 at 10 μM isoquinoline compound
T1 construct: expressed in transfected cells; host or cells: HEK 293
Outline: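 Intact-cell competition binding, 2.5 hr at 37 °C, in PBS/10% calf serum/1 mM CaCl2; hMCR-4 cells at 4×10^3 per tube, hMCR-1 cells at 2×10^4 per tube. Filtration on BSA/CaCl2-soaked GF/B, cold 50 mM Tris pH 7.4 washes, scintillation count.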

[2] = molecular target: T2, MCR-4 (Homo sapiens, UniProt P32245); assay: Melanocortin receptor binding assay, competition with 125I-HP 467, HEK 293 cells expressing hMCR-4; conditions: for IC50: read-out: MC-4 IC50
T2 construct: expressed in transfected cells; host or cells: HEK 293
Protocol: All cell culture media and reagents were obtained from GibcoBRL (Gaithersburg Md.), except for COSMIC CALF SERUM (HyClone; Logan Utah).
Cells were suspended in PBS, 10% COSMIC CALF SERUM and 1 mM CaCl2. Cell suspensions were prepared at a density of 2×10^4 cells/ml for HEK 293 cells expressing hMCR-3, hMCR-4 or hMCR-5, and 1×10^5 cells/ml for HEK 293 cells expressing hMCR-1. Suspensions were placed in a water bath and allowed to warm to 37° C. for 1 hr.
Binding assays were performed in a total volume of 250 μl for HEK 293 cells. […] To each tube was added 4×10^3 HEK 293 cells expressing hMCR-3, hMCR-4 or hMCR-5, or 2×10^4 cells expressing hMCR-1. Assays were incubated for 2.5 hr at 37° C.
GF/B filter plates were prepared by soaking for at least one hour in 5 mg/ml BSA and 10 mM CaCl2. Assays were filtered using a Brandel 96-well cell harvester (Brandel Inc.; Gaithersburg, Md.). The filters were washed four times with cold 50 mM Tris, pH 7.4, the filter plates were dehydrated for 2 hr and 35 μl of MICROSCINT was added to each well. Filter plates were counted using a Packard Topcount (Packard Instrument Co.) and data analyzed using GraphPad PRISM v2.0 (GraphPad Software Inc.; San Diego Calif.) and Microsoft EXCEL v5.0a (Microsoft Corp.; Redmond Wash.).
To assay isoquinoline compounds, binding assays were performed in duplicate in a 96 well format. […] A 0.2 ml aliquot of suspended cells was added to each well to give the cell numbers indicate above, and the cells were incubated at 37° C. for 2.5 hr. Cells were harvested on GF/B filter plates as described above and counted.

[3] = TRG 2408 and TRG 2409 libraries, inhibition of 125I-HP 467 binding
[4] = inhibition of binding of 125I-HP 467, HEK 293 cells expressing MCR-1, TRG 2414 library
[5] = inhibition of binding of 125I-HP 467, HEK 293 cells expressing MCR-4, TRG 2414 library
[6] = inhibition of binding of 125I-HP 467, HEK 293 cells expressing MCR-1
[7] = inhibition of binding of 125I-HP 467, HEK 293 cells expressing MCR-4
[8] = TRG 2414 library, inhibition of binding of 125I-HP 467, HEK 293 cells expressing MCR-1
[9] = TRG 2414 library, inhibition of binding of 125I-HP 467, HEK 293 cells expressing MCR-4
[10] = TRG 2406 and TRG 2407 libraries, inhibition of binding of 125I-HP 467

T1 sequence (Q01726 whole entry): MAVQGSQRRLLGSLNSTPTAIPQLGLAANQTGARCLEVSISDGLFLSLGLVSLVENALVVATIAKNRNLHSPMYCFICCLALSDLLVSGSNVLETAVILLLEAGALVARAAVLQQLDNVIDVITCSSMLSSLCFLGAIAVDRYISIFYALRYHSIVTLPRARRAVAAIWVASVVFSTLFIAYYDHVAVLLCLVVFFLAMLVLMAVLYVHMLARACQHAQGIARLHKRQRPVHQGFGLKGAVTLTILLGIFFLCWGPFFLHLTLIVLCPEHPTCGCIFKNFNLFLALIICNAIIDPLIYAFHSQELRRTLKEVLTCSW
T2 sequence (P32245 whole entry): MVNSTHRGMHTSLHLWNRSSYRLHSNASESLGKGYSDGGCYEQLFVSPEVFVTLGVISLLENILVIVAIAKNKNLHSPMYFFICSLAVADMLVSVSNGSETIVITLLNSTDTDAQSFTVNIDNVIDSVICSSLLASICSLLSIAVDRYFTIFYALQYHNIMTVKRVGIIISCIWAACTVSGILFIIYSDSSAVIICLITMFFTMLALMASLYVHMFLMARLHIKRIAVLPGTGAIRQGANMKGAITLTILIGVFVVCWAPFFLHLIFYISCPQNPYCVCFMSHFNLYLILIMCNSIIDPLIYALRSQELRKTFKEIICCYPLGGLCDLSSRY

Structure (SMILES): NCCNC(CN)CCCN1Cc2ccccc2C(CNC2CCCCC2)C1c1ccc(-c2ccccc2)cc1 (stereo not shown) [TRG 2408-83]
- IC50 [1, 3]: 1.77 µM
- IC50 [2, 3]: 11.1 µM

Structure (SMILES): NCC(CCCCN1Cc2ccccc2C(CNC2CCCCCC2)C1c1cccc(Oc2ccccc2)c1)NCc1ccccc1 (stereo not shown) [TRG 2414-115]
- IC50 [1, 4]: 3.71 µM
- IC50 [2, 5]: 5.6 µM

Structure (SMILES): COc1ccccc1CCNCC1c2ccccc2CN(CCCCC(N)CN)C1c1ccc(Oc2ccccc2)cc1 (stereo not shown) [Cmpd 265]
- MC-1 IC50 [1, 8]: no fit
- MC-4 IC50 [2, 9]: no fit

Structure (SMILES): COc1ccccc1CCNCC1c2ccccc2CN(CCCC[C@H](N)CN)C1c1cc(C(F)(F)F)cc(C(F)(F)F)c1 (stereo partly shown) [TRG 2414-49]
- IC50 [1, 4]: 3.77 µM
- IC50 [2, 5]: 0.32 µM

Structure (SMILES): CN[C@@H](CN)CCCCN1Cc2ccccc2C(CNC2CCCCC2)C1c1ccc(Cl)cc1Cl (stereo partly shown) [TRG 2408-40]
- IC50 [1, 3]: 2.43 µM
- IC50 [2, 3]: 8.28 µM

Structure (SMILES): CCOc1ccc(CCNCC2c3ccccc3CN(CCCCC(CN)NCc3ccccc3)C2c2cc(C(F)(F)F)cc(C(F)(F)F)c2)cc1 (stereo not shown) [TRG 2421-21]
- IC50 [1, 6]: 2.59 µM
- IC50 [2, 7]: 3.98 µM

Structure (SMILES): CCNc1ccc(C2C(CNC3CCCCC3)c3ccccc3CN2CCCCC(N)CN)cc1 (mixture of isomers) [TRG 2408-31]
- IC50 [1, 3]: 1.27 µM
- IC50 [2, 3]: 46.5 µM

Structure (SMILES): CNC(CN)CCCCN1Cc2ccccc2C(CNc2cccc(O)c2)C1c1ccc(Cl)cc1Cl (stereo not shown) [TRG 2407-7]
- IC50 [1, 10]: 4.38 µM
- MC-4 IC50 [2, 10]: no fit

Structure (SMILES): NCC(CCCCN1Cc2ccccc2C(CNC2CCCCC2)C1c1cc(C(F)(F)F)cc(C(F)(F)F)c1)NCc1ccccc1 (stereo not shown) [TRG 2414-79]
- IC50 [1, 4]: 10.4 µM
- IC50 [2, 5]: 4.99 µM

Structure (SMILES): CCCNc1ccc(C2C(CNC3CCCCC3)c3ccccc3CN2CCCCC(CN)NC)cc1 (stereo not shown) [TRG 2409-20]
- IC50 ([1]; competition with 125I-HP 467, HEK 293 cells expressing MCR-1): 0.88 µM
- IC50 ([2]; competition with 125I-HP 467, HEK 293 cells expressing MCR-4): 19.8 µM

Structure (SMILES): Cc1cccc(C2C(CNC3CCCCC3)c3ccccc3CN2CCN)c1 (stereo not shown) [TRG 2405-47]
- IC50 ([1]; TRG 2405 section, inhibition of binding of 125I-HP 467, HEK 293 cells expressing MCR-1): 14.3 µM
- % Disp. MC-1 10 μM ([1]; first of duplicate): 42.3%
- % Disp. MC-1 10 μM ([1]; second of duplicate): 45.8%
- IC50 ([2]; TRG 2405 section, inhibition of binding of 125I-HP 467, HEK 293 cells expressing MCR-4): 18.9 µM

Structure (SMILES): NCC(CCCCN1Cc2ccccc2C(CNC2CCCCC2)C1c1ccc(Cl)cc1Cl)NCCc1ccccc1 (stereo not shown) [TRG 2408-14]
- IC50 [1, 3]: 2.11 µM
- IC50 [2, 3]: 5.52 µM

Next, values leading:

- IC50 [1, 6]: 0.24 µM
- IC50 [2, 7]: 1.36 µM
Structure (SMILES): CCCCNc1ccc(C2C(CNCCc3ccccc3)c3ccccc3CN2CCCC(CN)NCCc2ccc(Br)cc2)cc1 (stereo not shown) [TRG 2411-194]

- IC50 [1, 6]: 0.26 µM
- IC50 [2, 7]: 1.34 µM
Structure (SMILES): CCNc1ccc(C2C(CNCCc3ccccc3)c3ccccc3CN2CCCC(CN)NCCc2ccccc2)cc1 (stereo not shown) [TRG 2413-9]

- IC50 [1, 6]: 0.1 µM
- IC50 [2, 7]: 1.93 µM
Structure (SMILES): CCCCNc1ccc(C2C(CNC3CCCCC3)c3ccccc3CN2CCCC(CN)NCc2ccc(OC)cc2)cc1 (stereo not shown) [TRG 2411-212]

- IC50 [1, 4]: 3.52 µM
- IC50 [2, 5]: 4.06 µM
Structure (SMILES): COc1ccccc1CCNCC1c2ccccc2CN(CCCCC(CN)NCCc2ccccc2)C1c1cccc(Oc2ccccc2)c1 (stereo not shown) [TRG 2414-90]

- IC50 [1, 8]: 8.2 µM
- IC50 [2, 9]: 10.8 µM
Structure (SMILES): COc1cccc(CNCC2c3ccccc3CN(CCCCC(CN)NCCc3ccccc3)C2c2ccccc2Br)c1 (stereo not shown) [Cmpd 218]

- IC50 [1, 4]: 0.788 µM
- IC50 [2, 5]: 12.6 µM
Structure (SMILES): COc1cccc(CNCC2c3ccccc3CN(CCCCC(CN)NCc3ccccc3)C2c2ccc(Oc3ccccc3)cc2)c1 (stereo not shown) [TRG 2414-139]

- IC50 [1, 6]: 0.09 µM
- IC50 [2, 7]: 1.61 µM
Structure (SMILES): CCNc1ccc(C2C(CN)c3ccccc3CN2CCCC(CN)NCc2ccc(OC)cc2)cc1 (stereo not shown) [TRG 2411-184]

- IC50 [1, 4]: 2.93 µM
- IC50 [2, 5]: 4.88 µM
Structure (SMILES): COc1ccccc1CCNCC1c2ccccc2CN(CCCCC(CN)NCCc2ccccc2)C1c1ccc(Cl)cc1Cl (stereo not shown) [TRG 2414-10]

- IC50 [1, 8]: 11.4 µM
- IC50 [2, 9]: 16 µM
Structure (SMILES): CCCOc1ccc(C2C(CNCc3ccccc3)c3ccccc3CN2CCCCC(CN)NCC(C)c2ccc(CC(C)C)cc2)cc1 (mixture of isomers) [Cmpd 192]

- IC50 [1, 6]: 0.19 µM
- IC50 [2, 7]: 0.21 µM
Structure (SMILES): CCCCNc1ccc(C2C(CNCCc3ccccc3)c3ccccc3CN2CCCC(CN)NCC)cc1 (stereo not shown) [TRG 2411-190]
